# Values of other authors as cited in patent publication US11938222B2, “Pregabalin sustained release composition and method for preparing the same” (priority 2018, dated 2024).
# Details: gastrointestinal tract, humans
smiles,measurement,value
"CC(C)C[C@H](CN)CC(=O)O [pregabalin, (S)-3-aminomethyl-5-methylhexanoic acid]",average absorption window,≤ 6 h
